Our source for the EC50 values is patent US11116760B2 (Gilead Sciences, Inc., priority 2018, dated 2021).

The assay deals with α4β7 integrin (Homo sapiens (Human), UniProt P13612+P26010). Kind of assay: α4β7 Integrin Cell Capture Assay. In kind it is cell-based. The following applies: Table 2; capture of α4β7 expressing RPM18866 cells on MadCAM-1 extracellular domain-coated plate.
Sequence of α4β7 integrin (P13612 34-1032): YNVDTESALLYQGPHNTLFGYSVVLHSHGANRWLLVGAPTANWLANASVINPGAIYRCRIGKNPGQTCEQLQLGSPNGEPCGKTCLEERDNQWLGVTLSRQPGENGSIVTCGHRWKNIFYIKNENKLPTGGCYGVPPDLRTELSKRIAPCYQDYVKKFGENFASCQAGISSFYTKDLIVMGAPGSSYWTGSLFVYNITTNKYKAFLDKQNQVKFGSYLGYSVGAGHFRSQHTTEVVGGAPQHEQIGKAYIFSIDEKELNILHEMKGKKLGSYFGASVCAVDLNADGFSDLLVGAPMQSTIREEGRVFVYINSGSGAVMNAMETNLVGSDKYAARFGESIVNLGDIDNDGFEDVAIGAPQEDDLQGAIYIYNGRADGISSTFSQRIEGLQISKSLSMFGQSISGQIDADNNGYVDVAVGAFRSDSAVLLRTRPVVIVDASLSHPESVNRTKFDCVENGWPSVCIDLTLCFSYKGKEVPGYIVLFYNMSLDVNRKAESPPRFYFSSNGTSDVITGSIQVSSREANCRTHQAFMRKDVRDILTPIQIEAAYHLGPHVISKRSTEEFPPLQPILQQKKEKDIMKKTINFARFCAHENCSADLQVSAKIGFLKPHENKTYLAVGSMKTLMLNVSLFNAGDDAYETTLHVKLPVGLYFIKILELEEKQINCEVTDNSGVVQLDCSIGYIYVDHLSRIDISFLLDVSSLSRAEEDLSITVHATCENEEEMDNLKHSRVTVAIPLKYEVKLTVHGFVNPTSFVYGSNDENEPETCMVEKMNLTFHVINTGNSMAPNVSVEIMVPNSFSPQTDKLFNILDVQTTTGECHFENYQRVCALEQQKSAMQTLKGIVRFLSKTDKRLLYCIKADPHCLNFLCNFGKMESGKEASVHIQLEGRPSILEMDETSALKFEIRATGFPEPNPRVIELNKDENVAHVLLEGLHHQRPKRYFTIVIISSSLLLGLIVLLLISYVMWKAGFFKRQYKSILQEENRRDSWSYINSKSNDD
Sequence of α4β7 integrin (P26010 20-798): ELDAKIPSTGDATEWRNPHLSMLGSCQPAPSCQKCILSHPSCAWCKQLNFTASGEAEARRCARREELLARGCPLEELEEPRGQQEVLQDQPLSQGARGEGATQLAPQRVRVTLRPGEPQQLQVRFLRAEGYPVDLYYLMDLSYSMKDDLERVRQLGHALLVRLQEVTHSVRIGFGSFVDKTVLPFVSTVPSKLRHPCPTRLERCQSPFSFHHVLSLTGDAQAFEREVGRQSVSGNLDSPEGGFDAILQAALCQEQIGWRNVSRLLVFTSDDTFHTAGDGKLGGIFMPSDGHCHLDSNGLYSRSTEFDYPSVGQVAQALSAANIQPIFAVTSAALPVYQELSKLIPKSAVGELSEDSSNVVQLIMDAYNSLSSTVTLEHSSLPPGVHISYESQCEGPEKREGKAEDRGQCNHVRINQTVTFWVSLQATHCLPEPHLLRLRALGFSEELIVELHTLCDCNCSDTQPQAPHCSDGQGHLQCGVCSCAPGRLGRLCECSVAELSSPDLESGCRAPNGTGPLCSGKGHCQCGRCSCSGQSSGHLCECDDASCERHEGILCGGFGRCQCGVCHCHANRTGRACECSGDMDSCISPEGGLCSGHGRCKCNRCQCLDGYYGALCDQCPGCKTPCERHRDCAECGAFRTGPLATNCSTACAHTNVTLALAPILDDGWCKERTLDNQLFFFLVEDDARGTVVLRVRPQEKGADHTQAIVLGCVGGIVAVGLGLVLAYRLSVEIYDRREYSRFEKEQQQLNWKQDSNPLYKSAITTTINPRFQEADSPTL

`N#Cc1ccc(-c2ccc(C[C@H](NC(=O)c3c(F)cc(N[C@@H]4CCCCC4(F)F)cc3F)C(=O)O)c3cccnc23)c(Cl)c1` [Example 170] registered an EC50 of 93.7 nM. The value for `Cc1cc(C(F)(F)F)c(-c2ccc(C[C@H](NC(=O)c3c(F)cc(N4CC(C)OCC4C(F)(F)F)cc3F)C(=O)O)c3cccnc23)c(=O)n1C` (some centres unmarked) [Example 171] was 0.5 nM.

On to `CC[C@@H](N(c1cc(F)c(C(=O)N[C@@H](Cc2ccc(-c3c(C(F)(F)F)cc(C)n(C)c3=O)c3ncccc23)C(=O)O)c(F)c1)C1CC1)C(F)(F)F` [Example 172], for which the EC50 turned out to be 0.5 nM. The figure for `Cc1[nH]c2cc(Cl)c(C(=O)N[C@@H](Cc3ccc(-c4ccc(C#N)cc4Cl)c4ncccc34)C(=O)O)c(Cl)c2c1C` [Example 174] is 97.8 nM; for `N#Cc1ccc(-c2ccc(C[C@H](NC(=O)c3c(F)cc(O[C@H](c4ccccc4)C(F)(F)F)cc3F)C(=O)O)c3cccnc23)c(Cl)c1` [Example 175] it is 97.1 nM; for `CCc1nc(-c2ccc(C[C@H](NC(=O)c3c(F)cc(N[C@H](CC)C(F)(F)F)cc3F)C(=O)O)c3cccnc23)c(=O)n(C)c1CC` [Example 176] it is 0.9 nM. The value for `O=C(N[C@@H](Cc1ccc(-c2cc(F)c(F)cc2OC2CCC2)c2ncccc12)C(=O)O)c1c(F)cccc1F` [Example 177] was 28 nM; that for `COCCNC(=O)c1cc(F)c(C(=O)N[C@@H](Cc2ccc(-c3ccc(C#N)cc3Cl)c3ncccc23)C(=O)O)c(F)c1` [Example 178] was 37.1 nM. The value for `N#Cc1ccc(-c2ccc(C[C@H](NC(=O)c3c(Cl)cc4nc(C5CC5)[nH]c4c3Cl)C(=O)O)c3cccnc23)c(Cl)c1` [Example 179] was 37.7 nM. `Cc1cc(C(F)(F)F)c(-c2ccc(C[C@H](NC(=O)c3c(F)cc(N4CCOC[C@@H]4C)cc3F)C(=O)O)c3cccnc23)c(=O)n1C` [Example 180] gave an EC50 of 0.9 nM. The value for `Cc1cc(C(F)(F)F)c(-c2ccc(C[C@H](NC(=O)c3c(F)cc(N4CCO[C@@H](C)C4)cc3F)C(=O)O)c3cccnc23)c(=O)n1C` [Example 181] was 0.7 nM; that for `CC[C@@H](Nc1cc(F)c(C(=O)N[C@@H](Cc2ccc(-c3cc4ccccc4n(C)c3=O)c3ncccc23)C(=O)O)c(F)c1)C(F)(F)F` [Example 182] was 0.9 nM; that for `CC[C@@H](Nc1cc(F)c(C(=O)N[C@@H](Cc2ccc(-c3c(C(F)(F)F)cc(C)n(C)c3=O)c3nc(C)ccc23)C(=O)O)c(F)c1)C(F)(F)F` [Example 183] was 0.9 nM.

Turning to `CC[C@@H](Nc1cc(F)c(C(=O)N[C@@H](Cc2ccc(-c3c(OC)ccn(C)c3=O)c3ncccc23)C(=O)O)c(F)c1)C(F)(F)F` [Example 186], the EC50 worked out at 1 nM. The figure for `CC[C@@H](Nc1cc(F)c(C(=O)N[C@@H](Cc2ccc(-c3c(C)c(C(F)(F)F)cn(C)c3=O)c3ncccc23)C(=O)O)c(F)c1)C(F)(F)F` [Example 188] is 1.2 nM; for `O=C(N[C@@H](Cc1ccc(-c2nccc(C(F)(F)F)n2)c2ncccc12)C(=O)O)c1c(F)cc(N2CCOC[C@@H]2C(F)(F)F)cc1F` [Example 189] it is 15.1 nM; for `COc1cc(C)n(C)c(=O)c1-c1ccc(C[C@H](NC(=O)c2c(F)cc(N3CCCC[C@@H]3C(F)(F)F)cc2F)C(=O)O)c2cccnc12` [Example 190] it is 1.2 nM. The value for `Cc1cc(C(F)(F)F)c(-c2ccc(C[C@H](NC(=O)c3c(F)cc(N4C[C@@H](C)OC[C@@H]4C)cc3F)C(=O)O)c3cccnc23)c(=O)n1C` [Example 191] was 1.3 nM. `Cn1c(=O)c(-c2ccc(C[C@H](NC(=O)c3c(F)cc(N4CCOC[C@H]4C(F)(F)F)cc3F)C(=O)O)c3cccnc23)cc2cnccc21` [Example 192] yielded an EC50 of 1.4 nM.

On to `CCOc1ccnc(-c2ccc(C[C@H](NC(=O)c3c(F)cc(N4CCOC[C@@H]4C(F)(F)F)cc3F)C(=O)O)c3cccnc23)c1C(F)(F)F` [Example 193], for which the EC50 is 1.4 nM. The value for `Nc1ccc(C(F)(F)F)c(-c2ccc(C[C@H](NC(=O)c3c(F)cc(N4CCOC[C@@H]4C(F)(F)F)cc3F)C(=O)O)c3cccnc23)n1` [Example 194] was 1.4 nM. The value for `C[C@H](NC(=O)c1cc(F)c(C(=O)N[C@@H](Cc2ccc(-c3ccc(C#N)cc3Cl)c3ncccc23)C(=O)O)c(F)c1)C(F)(F)F` [Example 195] was 62.3 nM; that for `O=C(N[C@@H](Cc1ccc(-c2cc3ccccc3oc2=O)c2ncccc12)C(=O)O)c1c(Cl)cccc1Cl` [Example 196] was 63.1 nM.

`N#Cc1ccc(-c2ccc(C[C@H](NC(=O)c3c(F)cc(C(=O)NC4CC4)cc3F)C(=O)O)c3cccnc23)c(Cl)c1` [Example 197] returned an EC50 of 63.4 nM. The value for `Cc1cc(C(F)(F)F)c(-c2ccc(C[C@H](NC(=O)c3c(F)cc(N4C[C@H](C)OC[C@@H]4C(F)(F)F)cc3F)C(=O)O)c3cccnc23)c(=O)n1C` [Example 198] was 1.4 nM; that for `CC[C@@H](Nc1cc(F)c(C(=O)N[C@@H](Cc2ccc(-c3c(C)c(F)cn(C)c3=O)c3ncccc23)C(=O)O)c(F)c1)C(F)(F)F` [Example 199] was 1.5 nM. The value for `CC[C@@H](Nc1cc(F)c(C(=O)N[C@@H](Cc2ccc(-c3c(C)c(Cl)cn(C)c3=O)c3ncccc23)C(=O)O)c(F)c1)C(F)(F)F` [Example 200] was 1.5 nM; that for `CCOCc1cc(OC)c(-c2ccc(C[C@H](NC(=O)c3c(F)cc(N[C@H](CC)C(F)(F)F)cc3F)C(=O)O)c3cccnc23)c(OC)c1` [Example 201] was 1.5 nM. In turn, `Cc1cc(C)n(C)c(=O)c1-c1ccc(C[C@H](NC(=O)c2c(F)cc(N3CCCC[C@@H]3C(F)(F)F)cc2F)C(=O)O)c2cccnc12` [Example 202] had an EC50 of 1.5 nM. As for `Cc1c(-c2ccc(C[C@H](NC(=O)c3c(F)cc(CS(=O)(=O)c4ccccc4)cc3F)C(=O)O)c3cccnc23)c(=O)n(C)c(=O)n1C` [Example 203], the EC50 amounted to 1.6 nM.

The compound `Cc1cc(C(F)(F)F)c(-c2ccc(C[C@H](NC(=O)c3c(F)cc(N4C[C@H](C)OC[C@@H]4C)cc3F)C(=O)O)c3cccnc23)c(=O)n1C` [Example 204] returned an EC50 of 1.7 nM. The figure for `COc1c(-c2ccc(C[C@H](NC(=O)c3c(F)cc(N4CCOC[C@H]4C(F)(F)F)cc3F)C(=O)O)c3cccnc23)c(=O)n(C)c2ccccc12` [Example 205] is 1.7 nM; for `Cc1nc(-c2ccc(C[C@H](NC(=O)c3c(F)cc(N4CCOC[C@@H]4C(F)(F)F)cc3F)C(=O)O)c3cccnc23)nc2cc(F)ccc12` [Example 206] it is 1.7 nM. `COc1cnn(C)c(=O)c1-c1ccc(C[C@H](NC(=O)c2c(F)cc(N[C@H](C)C(F)(F)F)cc2F)C(=O)O)c2cccnc12` [Example 207] yielded a 50% effective concentration (EC50) of 1.7 nM.

Compound `CC[C@@H](Nc1cc(F)c(C(=O)N[C@@H](Cc2ccc(-c3nc(N)ccc3C(F)(F)F)c3ncccc23)C(=O)O)c(F)c1)C(F)(F)F` [Example 208] registered an EC50 of 1.8 nM. As to `CC[C@@H](Nc1cc(F)c(C(=O)N[C@@H](Cc2ccc(-c3nc(C)cn(C)c3=O)c3ncccc23)C(=O)O)c(F)c1)C(F)(F)F` [Example 209], the EC50 was 1.9 nM. The value for `CC[C@@H](Nc1cc(F)c(C(=O)N[C@@H](Cc2ccc(-c3cc(C(F)(F)F)cn(C)c3=O)c3ncccc23)C(=O)O)c(F)c1)C(F)(F)F` [Example 210] was 1.9 nM; that for `C[C@@H](Nc1cc(F)c(C(=O)N[C@@H](Cc2ccc(-c3cn(C)c(=O)n(C)c3=O)c3ncccc23)C(=O)O)c(F)c1)C(F)(F)F` [Example 211] was 1.9 nM. The figure for `Cc1ccnc(-c2ccc(C[C@H](NC(=O)c3c(F)cc(N4CCOC[C@@H]4C(F)(F)F)cc3F)C(=O)O)c3cccnc23)c1N(C)C` [Example 212] is 1.9 nM. The figure for `COc1cc(F)c(C(F)(F)F)cc1-c1ccc(C[C@H](NC(=O)c2c(F)cccc2F)C(=O)O)c2cccnc12` [Example 215] is 29 nM; for `CC1(O)CCN(c2cc(F)c(C(=O)N[C@@H](Cc3ccc(-c4ccc(C#N)cc4Cl)c4ncccc34)C(=O)O)c(F)c2)CC1` [Example 216] it is 31 nM. As to `Cc1cc(C(F)(F)F)c(-c2ccc(C[C@H](NC(=O)c3c(F)cc(N4CCOCC4)cc3F)C(=O)O)c3cccnc23)c(=O)n1C` [Example 217], the EC50 came out at 2 nM. The value for `Cc1cc(C(F)(F)F)c(-c2ccc(C[C@H](NC(=O)c3c(F)cccc3F)C(=O)O)c3cccnc23)c(=O)n1C` [Example 218] was 2.1 nM; that for `CCOCc1cc(OC)c(-c2ccc(C[C@H](NC(=O)c3c(Cl)cc4cc[nH]c4c3Cl)C(=O)O)c3cccnc23)c(OC)c1` [Example 219] was 2.1 nM; that for `N#Cc1ccc(-c2ccc(C[C@H](NC(=O)c3c(F)cc(N4CCC(F)(F)CC4)cc3F)C(=O)O)c3cccnc23)c(Cl)c1` [Example 220] was 45.2 nM. The figure for `CC(=O)Cc1cc(F)c(C(=O)N[C@@H](Cc2ccc(-c3ccc(C#N)cc3Cl)c3ncccc23)C(=O)O)c(F)c1` [Example 221] is 48.2 nM; for `N#Cc1ccc(-c2ccc(C[C@H](NC(=O)c3c(F)cccc3OC(F)F)C(=O)O)c3cccnc23)c(Cl)c1` [Example 222] it is 48.3 nM. The figure for `Cc1ccnc(-c2ccc(C[C@H](NC(=O)c3c(F)cc(N4CCOC[C@@H]4C(F)(F)F)cc3F)C(=O)O)c3cccnc23)c1C(F)(F)F` [Example 223] is 2.2 nM; for `CCOCc1cc(OC)c(-c2ccc(C[C@H](NC(=O)c3c(F)cc(CS(=O)(=O)c4ccccc4)cc3F)C(=O)O)c3cccnc23)c(OC)c1` [Example 224] it is 2.2 nM.

`N#Cc1ccc(-c2ccc(C[C@H](NC(=O)c3c(Cl)cc4[nH]c(C5CC5)cc4c3Cl)C(=O)O)c3cccnc23)c(Cl)c1` [Example 225] had an EC50 of 53.7 nM.

For `Cc1c(-c2ccc(C[C@H](NC(=O)c3c(F)cc(N4CCS(=O)(=O)[C@@H](C)C4)cc3F)C(=O)O)c3cccnc23)c(=O)n(C)c(=O)n1C` [Example 226], a half-maximal effect (EC50) was put at 1.1 nM.

The compound `Cc1cc(C(F)(F)F)c(-c2ccc(C[C@H](NC(=O)c3c(F)cc(N4CCO[C@@H](C)[C@H]4C(F)(F)F)cc3F)C(=O)O)c3cccnc23)c(=O)n1C` [Example 227] yielded an EC50 of 1.1 nM.

Take `N#Cc1ccc(-c2ccc(C[C@H](NC(=O)c3c(Cl)cc4cc(C5CC5)[nH]c4c3Cl)C(=O)O)c3cccnc23)c(Cl)c1` [Example 228]: the EC50 amounted to 57.8 nM.
